The supplement of paper PMC11208160

Assay: recombinant barcode read abundance after kanamycin selection (control-corrected) (log10(CPM+1)); higher = more efficient recombination; sequences stand for … in AGTGCAGAGAAAATCGGCCAGTTTTCTCTGCCTGCAGTCCGCATGCCGT…AGATTTATGCAGCGGACTGCCTTTCTCCCAAAGTGATAAACCGGACAGTATCATGGACCGGTTTTCCCGGTAATCCGTATTTGCAAGGTTGGTTTCACT; site = the 11-nt target
In short: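 Two replicates per condition were plated: chloramphenicol/ampicillin LB agar for the control, and chloramphenicol/ampicillin/kanamycin with 0.1 mM IPTG for selection. The pooled E. coli screen behind them paired targets with IS621 bridge RNA target-binding loops. Recombination efficiency is expressed from averaged, control-corrected barcode counts per million at recombinant junctions, as log10(CPM+1).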
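Further: IS621 recombinase and bridge RNA in Escherichia coli cells.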

Sequence: GGAGTGACTTGGGTTCTAACCTGTTGCTA (site GGAGTGACTAA)
- recombinant barcode read abundance (log10): 0.183

Sequence: GGAGTGACTTGGGTTCTAACCTGTTGCTA (site GGAGTGACTTA)
- recombinant barcode read abundance (log10): 1.61

Sequence: GGATAGCCTTGGGTTCTAACCTGTTGCTT (site GGATAGCCTAA)
- recombinant barcode read abundance (log10): 0.939

Sequence: GGATAGCCTTGGGTTCTAACCTGTTGCTT (site GGATGGACTAA)
- recombinant barcode read abundance (log10): 0.17

Sequence: GGATATACTTGGGTTCTAACCTGTTGCCT (site GGATATACTAG)
- recombinant barcode read abundance (log10): 1.47

Sequence: GGATATACTTGGGTTCTAACCTGTTGCCT (site GGATTTACTAG)
- recombinant barcode read abundance (log10): 0.186

Sequence: GGATATCCTTGGGTTCTAACCTGTTGCTT (site CAGGTGACTCC)
- recombinant barcode read abundance (log10): 0

Sequence: GGATATCCTTGGGTTCTAACCTGTTGCTT (site GGATATCCTAA)
- recombinant barcode read abundance (log10): 0.284

Sequence: GGATCCTCTTGGGTTCTAACCTGTTGCCG (site GGATCCTCTCG)
- recombinant barcode read abundance (log10): 1.45

Sequence: GGATCCTCTTGGGTTCTAACCTGTTGCCG (site GTTTCCTCTCG)
- recombinant barcode read abundance (log10): 0.0317

Sequence: GGATGCACTTGGGTTCTAACCTGTTGCCA (site GGATACACTTG)
- recombinant barcode read abundance (log10): 0.237

Sequence: GGATGCACTTGGGTTCTAACCTGTTGCCA (site GGATCCACTTG)
- recombinant barcode read abundance (log10): 0.00874

Sequence: GGATGCACTTGGGTTCTAACCTGTTGCCA (site GGATGCACTTG)
- recombinant barcode read abundance (log10): 0.953

Sequence: GGATGCACTTGGGTTCTAACCTGTTGCCA (site GGATTCACTTG)
- recombinant barcode read abundance (log10): 0.319

Sequence: GGATGTCCTTGGGTTCTAACCTGTTGCGT (site CTATGTCCTAC)
- recombinant barcode read abundance (log10): 0.29

Sequence: GGATGTCCTTGGGTTCTAACCTGTTGCGT (site GGATGTCCTAC)
- recombinant barcode read abundance (log10): 1.95

Sequence: GGATTCACTTGGGTTCTAACCTGTTGCCA (site GGATACACTTG)
- recombinant barcode read abundance (log10): 0.0986

Sequence: GGATTCACTTGGGTTCTAACCTGTTGCCA (site GGATCCACTTG)
- recombinant barcode read abundance (log10): 0.0631

Sequence: GGATTCACTTGGGTTCTAACCTGTTGCCA (site GGATGCACTTG)
- recombinant barcode read abundance (log10): 0.925

Sequence: GGATTCACTTGGGTTCTAACCTGTTGCCA (site GGATTCACTTG)
- recombinant barcode read abundance (log10): 0.992

Sequence: GGCACGACTTGGGTTCTAACCTGTTGCCT (site GGCACAACTAG)
- recombinant barcode read abundance (log10): 0.274

Sequence: GGCACGACTTGGGTTCTAACCTGTTGCCT (site GGCACCACTAG)
- recombinant barcode read abundance (log10): 0.221

Sequence: GGCACGACTTGGGTTCTAACCTGTTGCCT (site GGCACGACTAG)
- recombinant barcode read abundance (log10): 0.323

Sequence: GGCACGACTTGGGTTCTAACCTGTTGCCT (site GGCACTACTAG)
- recombinant barcode read abundance (log10): 0.0541

Sequence: GGCACTCCTTGGGTTCTAACCTGTTGCCT (site GGCACTCCTAG)
- recombinant barcode read abundance (log10): 0.351

Sequence: GGCACTCCTTGGGTTCTAACCTGTTGCCT (site GGCATTCCTAG)
- recombinant barcode read abundance (log10): 0.171

Sequence: GGCACTGCTTGGGTTCTAACCTGTTGCCT (site GGCACAGCTAG)
- recombinant barcode read abundance (log10): 0.332

Sequence: GGCACTGCTTGGGTTCTAACCTGTTGCCT (site GGCACCGCTAG)
- recombinant barcode read abundance (log10): 0.123

Sequence: GGCACTGCTTGGGTTCTAACCTGTTGCCT (site GGCACGGCTAG)
- recombinant barcode read abundance (log10): 0.189

Sequence: GGCACTGCTTGGGTTCTAACCTGTTGCCT (site GGCACTGCTAG)
- recombinant barcode read abundance (log10): 0.34

Sequence: GGCAGATCTTGGGTTCTAACCTGTTGCTT (site GGCAGATCTAA)
- recombinant barcode read abundance (log10): 0.193

Sequence: GGCAGATCTTGGGTTCTAACCTGTTGCTT (site GGCAGCTCTAA)
- recombinant barcode read abundance (log10): 0.043

Sequence: GGCAGATCTTGGGTTCTAACCTGTTGCTT (site GGCAGGTCTAA)
- recombinant barcode read abundance (log10): 0.0248

Sequence: GGCAGATCTTGGGTTCTAACCTGTTGCTT (site GGCAGTTCTAA)
- recombinant barcode read abundance (log10): 0.9

Sequence: GGCAGTCCTTGGGTTCTAACCTGTTGCCG (site GGCAGACCTAG)
- recombinant barcode read abundance (log10): 0.169

Sequence: GGCAGTCCTTGGGTTCTAACCTGTTGCCG (site GGCAGTCCTCG)
- recombinant barcode read abundance (log10): 0.364

Sequence: GGCAGTCCTTGGGTTCTAACCTGTTGCTT (site GGCAGTCCTAA)
- recombinant barcode read abundance (log10): 0.336

Sequence: GGCAGTCCTTGGGTTCTAACCTGTTGCTT (site GGCAGTCCTAG)
- recombinant barcode read abundance (log10): 0.252

Sequence: GGCCGGCCTTGGGTTCTAACCTGTTGCCT (site GGCCGGACTAG)
- recombinant barcode read abundance (log10): 0.0681

Sequence: GGCCGGCCTTGGGTTCTAACCTGTTGCCT (site GGCCGGCCTAG)
- recombinant barcode read abundance (log10): 0.128

Sequence: GGCCGGCCTTGGGTTCTAACCTGTTGCCT (site GGCCGGGCTAG)
- recombinant barcode read abundance (log10): 1.02

Sequence: GGCCGGCCTTGGGTTCTAACCTGTTGCCT (site GGCCGGTCTAG)
- recombinant barcode read abundance (log10): 0.191

Sequence: GGCCGGTCTTGGGTTCTAACCTGTTGCCT (site GGCCGGACTAG)
- recombinant barcode read abundance (log10): 0

Sequence: GGCCGGTCTTGGGTTCTAACCTGTTGCCT (site GGCCGGCCTAG)
- recombinant barcode read abundance (log10): 0.248

Sequence: GGCCGGTCTTGGGTTCTAACCTGTTGCCT (site GGCCGGGCTAG)
- recombinant barcode read abundance (log10): 0.0483

Sequence: GGCCGGTCTTGGGTTCTAACCTGTTGCCT (site GGCCGGTCTAG)
- recombinant barcode read abundance (log10): 1.78

Sequence: GGCGTAGCTTGGGTTCTAACCTGTTGCCT (site GACGTAGCTAG)
- recombinant barcode read abundance (log10): 0.416

Sequence: GGCGTAGCTTGGGTTCTAACCTGTTGCCT (site GCCGTAGCTAG)
- recombinant barcode read abundance (log10): 0.624

Sequence: GGCGTAGCTTGGGTTCTAACCTGTTGCCT (site GGCGTAGCTAG)
- recombinant barcode read abundance (log10): 2.37

Sequence: GGCGTAGCTTGGGTTCTAACCTGTTGCCT (site GTCGTAGCTAG)
- recombinant barcode read abundance (log10): 0.227

Sequence: GGCTCCTCTTGGGTTCTAACCTGTTGCCT (site AGCTCCTCTAG)
- recombinant barcode read abundance (log10): 0.849

Sequence: GGCTCCTCTTGGGTTCTAACCTGTTGCCT (site CGCTCCTCTAG)
- recombinant barcode read abundance (log10): 0.0966

Sequence: GGCTCCTCTTGGGTTCTAACCTGTTGCCT (site GGCTCCTCTAG)
- recombinant barcode read abundance (log10): 0.733

Sequence: GGCTCCTCTTGGGTTCTAACCTGTTGCCT (site TGCTCCTCTAG)
- recombinant barcode read abundance (log10): 0.0949

Sequence: GGCTTACCTTGGGTTCTAACCTGTTGCCT (site AGCTTACCTAG)
- recombinant barcode read abundance (log10): 0.0239

Sequence: GGCTTACCTTGGGTTCTAACCTGTTGCCT (site CGCTTACCTAG)
- recombinant barcode read abundance (log10): 0.0687

Sequence: GGCTTACCTTGGGTTCTAACCTGTTGCCT (site GGCTTACCTAG)
- recombinant barcode read abundance (log10): 0.556

Sequence: GGCTTACCTTGGGTTCTAACCTGTTGCCT (site TGCTTACCTAG)
- recombinant barcode read abundance (log10): 0.395

Sequence: GGCTTGTCTTGGGTTCTAACCTGTTGCCT (site GGCATGTCTAG)
- recombinant barcode read abundance (log10): 0.0663

Sequence: GGCTTGTCTTGGGTTCTAACCTGTTGCCT (site GGCTTGTCTAG)
- recombinant barcode read abundance (log10): 0.655

Sequence: GGGAACGCTTGGGTTCTAACCTGTTGCCT (site GGGAACGCTAG)
- recombinant barcode read abundance (log10): 2.85

Sequence: GGGAACGCTTGGGTTCTAACCTGTTGCCT (site GGGAATGCTAG)
- recombinant barcode read abundance (log10): 0.0432

Sequence: GGGACATCTTGGGTTCTAACCTGTTGCCT (site GGGACATCTAG)
- recombinant barcode read abundance (log10): 0.987

Sequence: GGGACATCTTGGGTTCTAACCTGTTGCCT (site GGGGCATCTAG)
- recombinant barcode read abundance (log10): 0.015

Sequence: GGGACCACTTGGGTTCTAACCTGTTGCTA (site GGGACCACTTA)
- recombinant barcode read abundance (log10): 1.77

Sequence: GGGACCACTTGGGTTCTAACCTGTTGCTA (site TTCGGACCTCC)
- recombinant barcode read abundance (log10): 0.0578

Sequence: GGGACCTCTTGGGTTCTAACCTGTTGCTC (site GGGACCTCTGA)
- recombinant barcode read abundance (log10): 1.24

Sequence: GGGACCTCTTGGGTTCTAACCTGTTGCTC (site GTGACCTCTCA)
- recombinant barcode read abundance (log10): 0.167

Sequence: GGGACGACTTGGGTTCTAACCTGTTGCTA (site GGGACGACTAA)
- recombinant barcode read abundance (log10): 0.161

Sequence: GGGACGACTTGGGTTCTAACCTGTTGCTA (site GGGACGACTTA)
- recombinant barcode read abundance (log10): 1.35

Sequence: GGGATACCTTGGGTTCTAACCTGTTGCCT (site GCGTTACCTAG)
- recombinant barcode read abundance (log10): 0.0414

Sequence: GGGATACCTTGGGTTCTAACCTGTTGCCT (site GGGATACCTAG)
- recombinant barcode read abundance (log10): 2.6

Sequence: GGGCACTCTTGGGTTCTAACCTGTTGCAT (site GGGCACTCTAA)
- recombinant barcode read abundance (log10): 0.75

Sequence: GGGCACTCTTGGGTTCTAACCTGTTGCAT (site GGGCACTCTAC)
- recombinant barcode read abundance (log10): 0.132

Sequence: GGGCACTCTTGGGTTCTAACCTGTTGCAT (site GGGCACTCTAG)
- recombinant barcode read abundance (log10): 0.606

Sequence: GGGCACTCTTGGGTTCTAACCTGTTGCAT (site GGGCACTCTAT)
- recombinant barcode read abundance (log10): 2.22

Sequence: GGGCACTCTTGGGTTCTAACCTGTTGCCT (site GGGCACTCTAA)
- recombinant barcode read abundance (log10): 0.122
